Measured values taken from ChEMBL document CHEMBL1137053, “QSAR modeling of the MAO inhibitory activity of xanthones derivatives” (Bioorg Med Chem Lett, 2004).

These compounds were tested against T1, Amine oxidase [flavin-containing] A (Homo sapiens, UniProt P21397) (assay: Concentration required to inhibit monoamine oxidase activity by 50%).
T1 sequence (P21397 whole entry): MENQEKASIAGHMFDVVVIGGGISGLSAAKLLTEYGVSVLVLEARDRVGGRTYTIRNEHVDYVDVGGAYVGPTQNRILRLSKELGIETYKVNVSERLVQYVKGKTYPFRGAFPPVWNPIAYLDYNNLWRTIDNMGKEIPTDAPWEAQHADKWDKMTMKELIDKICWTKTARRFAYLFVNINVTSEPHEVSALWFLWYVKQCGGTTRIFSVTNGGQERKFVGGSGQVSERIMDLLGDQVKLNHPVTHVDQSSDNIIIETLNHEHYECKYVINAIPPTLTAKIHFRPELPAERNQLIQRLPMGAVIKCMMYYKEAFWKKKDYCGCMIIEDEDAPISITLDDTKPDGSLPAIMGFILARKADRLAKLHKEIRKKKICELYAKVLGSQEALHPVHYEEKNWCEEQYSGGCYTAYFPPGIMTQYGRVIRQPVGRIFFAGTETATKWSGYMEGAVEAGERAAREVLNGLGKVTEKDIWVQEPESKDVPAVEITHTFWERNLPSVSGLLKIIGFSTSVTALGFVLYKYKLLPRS
With O=c1c2ccccc2oc2cc(O)ccc12 the IC50 was 1.1 µM. With COc1cccc2c(=O)c3ccc(O)cc3oc12 the IC50 was 23 µM. Work on O=c1c2ccc(O)cc2oc2c(O)cccc12 yielded an IC50 of 4.5 µM. Work on COc1ccc2c(=O)c3ccccc3oc2c1O yielded an IC50 of 18 µM. O=c1c2ccccc2oc2c(O)cccc12 showed an IC50 of 1.3 µM. COc1cc(O)c2c(=O)c3c(O)ccc(O)c3oc2c1 [BELLIDIFOLIN] showed an IC50 of 0.66 µM. With COc1c(O)cc2oc3c(OC)c(O)ccc3c(=O)c2c1O the IC50 was 32 µM. COc1ccc2oc3ccccc3c(=O)c2c1 gave an IC50 of 5.3 µM. In the case of O=c1c2cc(O)c(O)cc2oc2cc(O)cc(O)c12, the IC50 is reported as 25 µM. COc1c(O)ccc2c(=O)c3ccccc3oc12 showed an IC50 of 65 µM. In the case of O=c1c2cc(O)ccc2oc2cc(O)cc(O)c12, the IC50 is reported as 8 µM. COc1cc(O)c2oc3c(C)ccc(OC)c3c(=O)c2c1 was tested, and the IC50 was 24 µM. Compound COc1c(O)cc2oc3c(OC)cccc3c(=O)c2c1O has an IC50 of 51 µM. Work on COc1cc(O)c2c(=O)c3cccc(O)c3oc2c1 yielded an IC50 of 0.04 µM. Compound COc1cccc2oc3ccccc3c(=O)c12 has an IC50 of 0.9 µM. With COc1cc(O)c2c(=O)c3c(OC)c(OC)ccc3oc2c1 [DECUSSATIN] the IC50 was 19 µM. With COc1cccc2c(=O)c3ccccc3oc12 the IC50 was 30 µM. With COc1cc(OC)c2c(=O)c3cccc(OC)c3oc2c1 the IC50 was 58 µM. Work on COc1cc(O)c2c(=O)c3ccccc3oc2c1 yielded an IC50 of 0.11 µM. COc1ccc2c(=O)c3cccc(OC)c3oc2c1 showed an IC50 of 36 µM. O=c1c2ccccc2oc2cccc(O)c12 gave an IC50 of 0.31 µM. Cc1c(O)c(Cl)c2oc3ccccc3c(=O)c2c1O gave an IC50 of 27 µM. Work on COc1cc(OC)c2c(=O)c3ccccc3oc2c1 yielded an IC50 of 20.2 µM. CC(C)=CCc1cc(O)c2oc3c(O)cccc3c(=O)c2c1O gave an IC50 of 3.3 µM. With COc1ccc2c(=O)c3ccccc3oc2c1 the IC50 was 0.18 µM. O=c1c2c(O)cc(O)cc2oc2ccc(O)c(O)c12 was tested, and the IC50 was 24 µM. Compound CC(C)=CCc1cc(O)c2c(=O)c3cccc(O)c3oc2c1O has an IC50 of 40 µM. Compound Cc1c(O)cc(O)c2c(=O)c3ccccc3oc12 has an IC50 of 4.3 µM. Compound O=c1c2ccccc2oc2ccccc12 [XANTHONE] has an IC50 of 0.84 µM. With O=c1c2c(O)cc(O)cc2oc2c(O)ccc(O)c12 [DEMETHYLBELLIDIFOLIN] the IC50 was 13 µM. Compound CC(C)=CCC/C(C)=C\Cc1c(O)cc(O)c2c(=O)c3cccc(O)c3oc12 has an IC50 of 37 µM. Work on COc1cc(O)c2c(=O)c3c(O)c(O)ccc3oc2c1 [GENTIAKOCHIANIN] yielded an IC50 of 8.5 µM. Compound COc1cc2oc3c(OC)cccc3c(=O)c2c(OC)c1OC has an IC50 of 37 µM. With COc1cccc2oc3c(O)cccc3c(=O)c12 the IC50 was 51 µM. COc1c(O)cc2oc3c(O)cccc3c(=O)c2c1O showed an IC50 of 2.7 µM. O=c1c2cccc(O)c2oc2cc(O)cc(O)c12 gave an IC50 of 3.8 µM. Cc1c(O)cc2oc3ccccc3c(=O)c2c1O showed an IC50 of 3.7 µM. Compound COc1ccc2c(=O)c3ccccc3oc2c1OC has an IC50 of 31 µM. Compound Cc1c(O)c(Br)c2oc3ccccc3c(=O)c2c1O has an IC50 of 14.9 µM. Compound O=c1c2ccccc2oc2ccc(O)cc12 has an IC50 of 3.8 µM. O=c1c2cccc(O)c2oc2cccc(O)c12 gave an IC50 of 0.73 µM. For COc1cc(O)c2c(=O)c3cccc(OC)c3oc2c1, the IC50 was 29 µM.
